Experimental data: US10828315B2 (Madrigal Pharmaceuticals, Inc., priority 2013, dated 2020)
Where two headings read alike, the source gives them in different places. Values belong to the molecule of their own block, whether it stands above or below them.

Columns and labels:
[1] = Artificial membrane permeability assay (PAMPA); conditions: incubation 5 h, first table
Human H3122 NSCLC cells = test: Cell viability assay (CellTiter-Glo) in H3122 cells (Example 4); format: cell-based; conditions: NCI-H3122
Procedure: Human H3122 NSCLC cells were obtained and grown in RPMI in the presence of fetal bovine serum (10%), 2 mM L-glutamine and antibiotics (100 IU/ml penicillin and 100 μg/ml streptomycin, Sigma Aldrich.) Cells were maintained at 37° C., 5% CO2 atmosphere.
Cell viability was measured using the CellTiter-Glo® assay (Promega). In brief, cells were plated in 96-well plates in triplicate at optimal seeding density (determined empirically) and incubated at 37° C., 5% CO2 atmosphere for 24 hr prior to the addition of drug or vehicle (0.3% DMSO) to the culture medium. At the end of the assay, CellTiter-Glo was added to the wells per manufacturer's recommendation, shaken for two minutes and incubated for 10 minutes at room temperature. Luminescence (0.1 sec) was measured with a Victor II microplate reader (Perkin Elmer) and the resulting data were used to calculate cell viability, normalized to vehicle control.
Cells as described above were treated with exemplary SDC-TRAPs and their viability determined as above as well. The following table illustrates the results.

H 3211 NSLC cells = test: IC50 of continuous and pulsed exposure (Examples 9 and 10); format: cell-based; conditions: three replicate columns
HER2 [2] = test: HER2 degradation in BT-474 cells (Example 3, Methods 1 and 2); format: cell-based, human
Description: This example illustrates how a HER2 degradation assay may be used as a test to determine and select Hsp90-targeting moieties suitable for use in SDC-TRAPs of the invention, and further illustrates the ability of SDC-TRAPs to target cells preferentially expressing Hsp90. Such a test may further be used to determine the Hsp90 binding ability of SDC-TRAPs of the invention, as well as through competitive binding assays and cell-based Hsp90 client protein degradation assays known in the art.
After treatment, each cytoplasmic sample is prepared from 1×10^6 cells by incubation of cell lysis buffer (#9803, Cell Signaling Technology) on ice for 10 minutes. The resulting supernatant used as the cytosol fractions is dissolved with sample buffer for SDS-PAGE and run on a SDS-PAGE gel, blotted onto a nitrocellulose membrane by using semi-dry transfer. Non-specific binding to nitrocellulose is blocked with 5% skim milk in TBS with 0.5% Tween at room temperature for 1 hour, then probed with anti-HER2/ErB2 mAb (rabbit IgG, #2242, Cell Signaling) and anti-Tubulin (T9026, Sigma) as housekeeping control protein. HRP-conjugated goat anti-rabbit IgG (H+L) and HRP-conjugated horse anti-mouse IgG (H+L) are used as secondary Ab (#7074#7076, Cell Signaling) and LumiGLO reagent, 20× Peroxide (#7003, Cell Signaling) is used for visualization. The Hsp90 client protein HER2 is degraded when cells are treated with Hsp90-targeting moieties or SDC-TRAPs of the invention.
BT-474 cells are plated in the interior 60 wells of a 96 well black clear bottom plate (20,000 cells/well) in DMEM medium, with DMEM media in the surrounding 36 wells, and incubated at 37° C. with 5% CO2 overnight. On the second day, concentration response curve source plates are produced (10 point, 3-fold dilution of compounds in DMSO) followed by a 1:30 dilution in an intermediate dilution plate containing DMEM. Compound is transferred from the intermediate plate to the cell plate at a dilution of 1:10. The cells are then incubated at 37° C. with 5% CO2 for 24 hours.
Cells are then fixed in 4% phosphate-buffered paraformaldehyde for 30 minutes at room temperature and then permeabilized by washing five times with 0.1% Triton X-100 in PBS for 5 minutes at room temperature on a shaker. […] Cells are washed five times with 0.1% Tween-20 in PBS for 5 minutes at room temperature on a shaker and incubated with fluorescently-labeled secondary antibody (LI-COR, #926-32211) diluted 1:1000 in blocking buffer, and DRAQ5 nuclear stain (Biostatus Limited, # DRAQ5) diluted 1:10,000, at room temperature on a shaker for 1 hour. Cells are washed 5 times with 0.1% Tween-20 in PBS for 5 minutes at room temperature on a shaker and imaged on a LI-COR Odyssey imaging station. The raw data is normalized to DRAQ5 and the HER2 EC50 is calculated using XLfit™.

[3] = Stability in cell culture media (Example 18); conditions: for Media (5 μM) % Remaining 1 h (37° C.)*: sum of both peaks
HER2 [4] = test: HER2 degradation assay with BT-474 cell line (Example 12, FACS); format: cell-based, human
[5] = Mouse plasma stability protocol, up to 1 h (Examples 16-18); conditions: for % Remaining (1 h): % Remaining of parent after 1 h incubation in mouse plasma at 37° C. (10 μM); for Mouse (10 μM) % Remaining 1 h (37° C.)*: sum of both peaks
[6] = Tissue Distribution Data for SDC-TRAP-0045
[7] = read-out: IC50, 72h-continuous, 7.5 × 10^3 cells/well

Compound: CCc1c2c(nc3ccc(OCC(=O)N(C)CCn4ccc5cc(-n6c(O)nnc6-c6cc(C(C)C)c(O)cc6O)ccc54)cc13)-c1cc3c(c(=O)n1C2)COC(=O)C3(O)CC (centres unmarked) [SDC-TRAP-0027, 2-((4,11-diethyl-4-hydroxy-3,14-dioxo-3,4,12,14-tetrahydro-1H-pyrano[3′,4′:6,7]indolizino[1,2-b]quinolin-9-yl)oxy)-N-(2-(5-(3-(2,4-dihydroxy-5-isopropylphenyl)-5-hydroxy-4H-1,2,4-triazol-4-yl)-1H-indol-1-yl)ethyl)-N-methylacetamide]
IC50 (H 3211 NSLC cells; 72 h, read-out: IC50, 72h-continuous, 7.5 × 10^3 cells/well): 984 nM
IC50 (Human H3122 NSCLC cells): 1350 nM

Compound: CCc1c2c(nc3ccc(OC(=O)N4CCN(c5ccc(-n6c(O)nnc6-c6cc(C(C)C)c(O)cc6O)cc5)CC4)cc13)-c1cc3c(c(=O)n1C2)COC(=O)C3(O)CC (centres unmarked) [SDC-TRAP-0045, 4,11-diethyl-4-hydroxy-3,14-dioxo-3,4,12,14-tetrahydro-1H-pyrano[3′,4′:6,7]indolizino[1,2-b]quinolin-9-yl 4-(4-(3-(2,4-dihydroxy-5-isopropylphenyl)-5-hydroxy-4H-1,2,4-triazol-4-yl)phenyl)piperazine-1-carboxylate]
IC50 (HER2 [2]): 464 nM
Media (5 μM) % Remaining 19 h (37° C.) [3]: 50%
Media (5 μM) % Remaining 1 h (37° C.)§ ([3]; data from single parent peak): 72%
Media (5 μM) % Remaining 1 h (37° C.)* [3]: 77%
IC50 (HER2 [4]): 464 nM
% Remaining (1 h) [5]: 45.0%
% Remaining (1 h, 37° C.) ([5]; mouse plasma): 45%
Mouse (10 μM) % Remaining 1 h (37° C.)§ ([5]; mouse plasma, data from single parent peak): 34%
Mouse (10 μM) % Remaining 1 h (37° C.)* ([5]; mouse plasma): 45%
Plasma Conc. ([6]; Time (h) 0.083): 689000 nM
Tumor Conc. ([6]; Time (h) 0.083): 4.30 nmol/g of tissue
Tumor/Plasma Ratio ([6]; Time (h) 0.083): 0.00624
Plasma Conc. ([6]; Time (h) 6): 1880 nM
Tumor Conc. ([6]; Time (h) 6): 2.55 nmol/g of tissue
Tumor/Plasma Ratio ([6]; Time (h) 6): 1.35
Plasma Conc. ([6]; Time (h) 12): 141 nM
Tumor Conc. ([6]; Time (h) 12): 1.13 nmol/g of tissue
Tumor/Plasma Ratio ([6]; Time (h) 12): 8.02
Plasma Conc. ([6]; Time (h) 24): 11.3 nM
Tumor Conc. ([6]; Time (h) 24): BQL
Plasma Conc. ([6]; Time (h) 48): BQL
Tumor Conc. ([6]; Time (h) 48): BQL

Compound: CCc1c2c(nc3ccc(OCC(=O)NCCn4ccc5cc(-n6c(O)nnc6-c6cc(C(C)C)c(O)cc6O)ccc54)cc13)-c1cc3c(c(=O)n1C2)COC(=O)C3(O)CC (centres unmarked) [SDC-TRAP-0023, 2-((4,11-diethyl-4-hydroxy-3,14-dioxo-3,4,12,14-tetrahydro-1H-pyrano[3′,4′:6,7]indolizino[1,2-b]quinolin-9-yl)oxy)-N-(2-(5-(3-(2,4-dihydroxy-5-isopropylphenyl)-5-hydroxy-4H-1,2,4-triazol-4-yl)-1H-indol-1-yl)ethyl)acetamide]
IC50 (H 3211 NSLC cells; [7]): < 12 nM
IC50 (Human H3122 NSCLC cells): 137 nM

Compound: CCc1c2c(nc3ccc(O)cc13)-c1cc3c(c(=O)n1C2)COC(=O)C3(CC)OC(=O)N(C)CCOCCn1ccc2cc(-n3c(O)nnc3-c3cc(C(C)C)c(O)cc3O)ccc21 (centres unmarked) [SDC-TRAP-0037, 4,11-diethyl-9-hydroxy-3,14-dioxo-3,4,12,14-tetrahydro-1H-pyrano[3′,4′:6,7]indolizino[1,2-b]quinolin-4-yl (2-(2-(5-(3-(2,4-dihydroxy-5-isopropylphenyl)-5-hydroxy-4H-1,2,4-triazol-4-yl)-1H-indol-1-yl)ethoxy)ethyl)(methyl)carbamate]
IC50 (HER2 [2]): 2110 nM
Media (5 μM) % Remaining 19 h (37° C.) [3]: 6%
Media (5 μM) % Remaining 1 h (37° C.)* [3]: 67%
IC50 (HER2 [4]): 2110 nM
% Remaining (1 h) [5]: 95.3%
% Remaining (1 h, 37° C.) ([5]; mouse plasma): 95%
Mouse (10 μM) % Remaining 1 h (37° C.)* ([5]; mouse plasma): 95%

The remaining lines, values ahead:

Mass Retention [1]: 14.7%
IC50 (Human H3122 NSCLC cells): 620 nM
Compound: CC(C)c1cc(-c2nnc(O)n2-c2ccc3c(ccn3CCN(C)C(=O)CCCC(=O)Nc3cccc4c3CN(C3CCC(=O)NC3=O)C4=O)c2)c(O)cc1O (centres unmarked) [SDC-TRAP-0018, N1-(2-(5-(3-(2,4-dihydroxy-5-isopropylphenyl)-5-hydroxy-4H-1,2,4-triazol-4-yl)-1H-indol-1-yl)ethyl)-N5-(2-(2,6-dioxopiperidin-3-yl)-1-oxoisoindolin-4-yl)-N1-methylglutaramide]

IC50 (Human H3122 NSCLC cells): 717 nM
Compound: CC(C)c1cc(-c2nnc(O)n2-c2ccc3c(ccn3CCN(C)C(=O)NCC(=O)Nc3cccc4c3CN(C3CCC(=O)NC3=O)C4=O)c2)c(O)cc1O (centres unmarked) [SDC-TRAP-0021, 2-(3-(2-(5-(3-(2,4-dihydroxy-5-isopropylphenyl)-5-hydroxy-4H-1,2,4-triazol-4-yl)-1H-indol-1-yl)ethyl)-3-methylureido)-N-(2-(2,6-dioxopiperidin-3-yl)-1-oxoisoindolin-4-yl)acetamide]

IC50 (Human H3122 NSCLC cells): 1740 nM
Compound: CC(C)c1cc(-c2nnc(O)n2-c2ccc3c(ccn3CCOCCNC(=O)c3ccc(CCc4c[nH]c5nc(N)[nH]c(=O)c45)cc3)c2)c(O)cc1O [SDC-TRAP-0020, 4-(2-(2-amino-4-oxo-4,7-dihydro-3H-pyrrolo[2,3-d]pyrimidin-5-yl)ethyl)-N-(2-(2-(5-(3-(2,4-dihydroxy-5-isopropylphenyl)-5-hydroxy-4H-1,2,4-triazol-4-yl)-1H-indol-1-yl)ethoxy)ethyl)benzamide]

IC50 (Human H3122 NSCLC cells): > 3000 nM
Compound: CC(C)c1cc(-c2nnc(O)n2-c2ccc3c(ccn3CCC(=O)Nc3cccc4c3CN(C3CCC(=O)NC3=O)C4=O)c2)c(O)cc1O (centres unmarked) [SDC-TRAP-0017, 3-(5-(3-(2,4-dihydroxy-5-isopropylphenyl)-5-hydroxy-4H-1,2,4-triazol-4-yl)-1H-indol-1-yl)-N-(2-(2,6-dioxopiperidin-3-yl)-1-oxoisoindolin-4-yl)propanamide]

IC50 (Human H3122 NSCLC cells): 393 nM
Compound: CC(C)c1cc(-c2nnc(O)n2-c2ccc3c(ccn3CCN(C)C(=O)c3ccc(CCc4c[nH]c5nc(N)[nH]c(=O)c45)cc3)c2)c(O)cc1O [SDC-TRAP-0019, 4-(2-(2-amino-4-oxo-4,7-dihydro-3H-pyrrolo[2,3-d]pyrimidin-5-yl)ethyl)-N-(2-(5-(3-(2,4-dihydroxy-5-isopropylphenyl)-5-hydroxy-4H-1,2,4-triazol-4-yl)-1H-indol-1-yl)ethyl)-N-methylbenzamide]

IC50 (H 3211 NSLC cells; [7]): 796 nM
IC50 (Human H3122 NSCLC cells): 1270 nM
Compound: CC(C)c1cc(-c2nnc(O)n2-c2ccc3c(ccn3CCOCCNC(=O)CCCC(=O)Nc3cccc4c3CN(C3CCC(=O)NC3=O)C4=O)c2)c(O)cc1O (centres unmarked) [SDC-TRAP-0015, N1-(2-(2-(5-(3-(2,4-dihydroxy-5-isopropylphenyl)-5-hydroxy-4H-1,2,4-triazol-4-yl)-1H-indol-1-yl)ethoxy)ethyl)-N5-(2-(2,6-dioxopiperidin-3-yl)-1-oxoisoindolin-4-yl)glutaramide]
